Several values for one entry are separate records, joined by “and”; a condition that tells them apart may be missing. Equal values may be shown once. Read-outs that look alike come from different tables or passages of the source.
What was measured:
PfMDH = biological target: T1, PfMDH (Plasmodium falciparum, UniProt Q6VVP7); assay: Thermal shift assay (TSA); type: binding; details: three replicate columns
T1 construct: The full-length WT PfMDH gene was cloned into pETM-13; made in house; host or cells: E. coli Rosetta 2 (DE3) pLysS
Experimental: The TSA experiment was conducted in a BioRad CSX 96 (Biorad). Each reaction consisted of 1 mM of compound (100 mM stock in 100% (v/v) DMSO) and 10 μM PfMDH in 100 mM Na–phosphate buffer pH 7.4, 400 mM NaCl, and 10× Sypro Orange (Invitrogen) for a total volume of 100 μl. Control experiments were performed with 1% (v/v) DMSO. Inflection points were determined using BioRad CFX96™ control software. Generally, a temperature increase of over 1 °C is interpreted as a result of the stabilization of the protein-ligand interaction. On the contrary, a negative shift is considered a destabilization caused by the fragment.

WT PfMDH = biological target: T2, WT PfMDH (Plasmodium falciparum, UniProt Q6VVP7); assay: Activity screening of 4DT / 4-phenylthiazol-2-amine derivatives (oxidation of malate, absorbance at 340 nm); type: biochemical
T2 construct: The full-length WT PfMDH gene was cloned into pETM-13; made in house; host or cells: E. coli Rosetta 2 (DE3) pLysS
Experimental: The oxidation of malate to oxaloacetate was assayed spectrophotometrically in flat-bottomed Corning 96-well microplates in a total volume of 250.0 µl in 50 mM glycine buffer pH 10.2[24] with an additional 400 mM NaCl for protein stability. The increase of absorbance at 340 nm was recorded in kinetic mode using a Tecan Spark multimode microplate reader at 298 K. A mastermix of 50 mM NAD+ and 44 μM PfMDH was used for both the screening and kinetics experiments. The final concentration of protein and cofactor were […], respectively. Positive control groups were set (absence of compound) in the same plate as the treated group. The absorbance from the background noise was subtracted from the data and then a linear regression model was employed in order to get the line slope from the first 5 min of the reaction. The percentage of enzymatic activity has been calculated as described by Eq. (1)1 enzymeactivity(%)=slopetreated/slopepositivecontrol*100
1.3 µL of derivatives of 4-phenylthiazol-2-amine in 100% DMSO were mixed with 237.7 µL of a mastermix of WT PfMDH previously incubated with NAD+. The final compound concentration used in this screening was 500 µM in the presence of 0.5% (v/v) DMSO. The microplate was sealed with silver foil for 1-h incubation at 25–35 °C. Finally, reactions in both the samples and control wells were started upon the addition of 13.0 µL of 5 mM malate). At the end of the experiments, the reaction of the plate was spectrophotometrically assayed at 600 nm in order to identify turbidity due to the low solubility of the compound. All measurements were performed in duplicate.

T1 sequence (Q6VVP7 entry or part of it): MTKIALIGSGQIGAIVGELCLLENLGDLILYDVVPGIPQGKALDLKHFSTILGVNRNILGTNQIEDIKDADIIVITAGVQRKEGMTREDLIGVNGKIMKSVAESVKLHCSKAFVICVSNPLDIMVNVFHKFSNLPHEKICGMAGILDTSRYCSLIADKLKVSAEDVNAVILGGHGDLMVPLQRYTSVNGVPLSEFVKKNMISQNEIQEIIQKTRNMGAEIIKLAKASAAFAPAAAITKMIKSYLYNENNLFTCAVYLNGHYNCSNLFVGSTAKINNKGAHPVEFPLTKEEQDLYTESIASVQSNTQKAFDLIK
T2 sequence (Q6VVP7 entry or part of it): as above

Compound: Cc1ccc(-c2csc(N)n2)cc1C [compound 5a]
- TSA melting curve raw fluorescence signal (PfMDH; Temperature 75): 6191,69391237371 and 6136,98106377792 and 6022,22137708791
- TSA melting curve raw fluorescence signal (PfMDH; Temperature 75.5): 6155,53394325777 and 6106,56217628376 and 5994,69779058543
- TSA melting curve raw fluorescence signal (PfMDH; Temperature 76): 6119,21897947977 and 6076,80705748139 and 5967,4462924716
- TSA melting curve raw fluorescence signal (PfMDH; Temperature 76.5): 6082,92591216179 and 6047,4145361092 and 5940,31651314489
- TSA melting curve raw fluorescence signal (PfMDH; Temperature 77): 6046,49720538895 and 6018,41753205572 and 5913,27495012434
- TSA melting curve raw fluorescence signal (PfMDH; Temperature 77.5): 6010,50289688288 and 5990,00501222795 and 5885,78980691114
- TSA melting curve raw fluorescence signal (PfMDH; Temperature 78): 5974,68191071035 and 5961,9413128759 and 5858,29554785782
- TSA melting curve raw fluorescence signal (PfMDH; Temperature 78.5): 5938,84446109596 and 5933,98335794503 and 5831,1047548002
- TSA melting curve raw fluorescence signal (PfMDH; Temperature 79): 5902,97195912381 and 5906,58331664414 and 5804,43914738993
- TSA melting curve raw fluorescence signal (PfMDH; Temperature 79.5): 5867,41053847852 and 5879,50936774398 and 5777,86836204367
- TSA melting curve raw fluorescence signal (PfMDH; Temperature 80): 5831,53193853565 and 5852,76984504973 and 5751,94689709266
- TSA melting curve raw fluorescence signal (PfMDH; Temperature 80.5): 5795,82019427429 and 5826,58557638173 and 5726,2038969697
- TSA melting curve raw fluorescence signal (PfMDH; Temperature 81): 5760,30095342266 and 5801,18894213247 and 5700,36557719877
- TSA melting curve raw fluorescence signal (PfMDH; Temperature 81.5): 5725,24994225392 and 5776,10279717956 and 5674,32010159986
- TSA melting curve raw fluorescence signal (PfMDH; Temperature 82): 5690,32532905286 and 5751,3477386949 and 5648,72005725552
- TSA melting curve raw fluorescence signal (PfMDH; Temperature 82.5): 5655,78245522646 and 5726,77680893998 and 5623,03287837809
- TSA melting curve raw fluorescence signal (PfMDH; Temperature 83): 5621,55211537617 and 5702,38981297221 and 5597,5741352507
- TSA melting curve raw fluorescence signal (PfMDH; Temperature 83.5): 5587,90100461892 and 5677,89080987549 and 5572,13715933177
- TSA melting curve raw fluorescence signal (PfMDH; Temperature 84): 5554,68764858678 and 5653,54864689514 and 5546,61264074355
- TSA melting curve raw fluorescence signal (PfMDH; Temperature 84.5): 5522,12797974512 and 5629,23115607744 and 5520,89063035555
- TSA melting curve raw fluorescence signal (PfMDH; Temperature 85): 5490,3943722303 and 5605,20109514197 and 5495,02372927899
- TSA melting curve raw fluorescence signal (PfMDH; Temperature 85.5): 5459,26859138261 and 5580,93868945953 and 5469,03090217972
- TSA melting curve raw fluorescence signal (PfMDH; Temperature 86): 5428,58283846294 and 5556,95201224284 and 5443,19308365262
- TSA melting curve raw fluorescence signal (PfMDH; Temperature 86.5): 5398,09747442684 and 5532,99737771582 and 5417,41903670835
- TSA melting curve raw fluorescence signal (PfMDH; Temperature 87): 5367,90135308437 and 5508,96565185791 and 5391,30496945424
- TSA melting curve raw fluorescence signal (PfMDH; Temperature 87.5): 5337,34531670684 and 5484,37750610498 and 5364,66521912081
- TSA melting curve raw fluorescence signal (PfMDH; Temperature 88): 5306,8503048902 and 5459,61999119873 and 5337,15073673697
- TSA melting curve raw fluorescence signal (PfMDH; Temperature 88.5): 5276,4616972104 and 5434,08494262397 and 5308,68599271431
- TSA melting curve raw fluorescence signal (PfMDH; Temperature 89): 5246,27326568905 and 5407,79046445709 and 5279,36241888361
- TSA melting curve raw fluorescence signal (PfMDH; Temperature 89.5): 5216,45044474314 and 5380,95498835197 and 5249,45359350464
- TSA melting curve raw fluorescence signal (PfMDH; Temperature 90): 5187,98991931244
- remaining activity at 500 µM (WT PfMDH; 500 µM compound, Dunnett test details, positive control mean 100, n 2, read-out: Mean 2 (mean % enzymatic activity of treated group)): 52%
- inhibition at 500 µM (WT PfMDH; 500 µM compound, Dunnett's multiple comparisons test, read-out: Mean Diff. (positive control vs. compound)): 48.5%
- remaining activity at 500 µM (WT PfMDH; 500 µM compound, control 100%, replicate 1, read-out: % enzymatic activity repl1): 56%
- remaining activity at 500 µM (WT PfMDH; 500 µM compound, control 100%, replicate 2, read-out: % enzymatic activity repl2): 47%
- Slope repl1 (WT PfMDH; 500 µM compound, linear regression slope of absorbance 340 nm vs time, replicate 1): 0.01855
- Slope repl2 (WT PfMDH; 500 µM compound, linear regression slope of absorbance 340 nm vs time, replicate 2): 0.01659
- Slope normalized repl1 (WT PfMDH; 500 µM compound, slope relative to control = 1, replicate 1): 0.5569
- Slope normalized repl2 (WT PfMDH; 500 µM compound, slope relative to control = 1, replicate 2): 0.4735
- remaining activity at 500 µM (WT PfMDH; read-out: enzyme activity): 52%
